Results published in BindingDB's records for doi:10.1016/s0960-894x(02)00061-6 (Lek, 2002).

Target: Beta-lactamase TEM (Escherichia coli, UniProt P62593)
Assay: ChEBML_47839
Experimental: The compound was tested for its inhibitory activity towards Class A TEM-1 beta-lactamase from Escherichia coli at 0.3 umol

Sequence of Beta-lactamase TEM (P62593 whole entry): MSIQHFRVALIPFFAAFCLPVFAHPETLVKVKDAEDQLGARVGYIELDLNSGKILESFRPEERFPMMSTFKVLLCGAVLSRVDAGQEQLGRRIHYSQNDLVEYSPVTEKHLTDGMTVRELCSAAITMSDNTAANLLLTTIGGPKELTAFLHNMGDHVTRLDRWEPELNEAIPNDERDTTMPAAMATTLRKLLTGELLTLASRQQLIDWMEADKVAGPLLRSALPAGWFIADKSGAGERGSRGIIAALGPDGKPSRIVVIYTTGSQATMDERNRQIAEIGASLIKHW

`C/C=C1/C(=O)N2C(C(=O)O)=C3CCCCC3[C@H]12` (stereo partly drawn) [Sodium; (R)-1-eth-(E)-ylidene-2-oxo-1,2,5,6,7,8,8a,8b-octahydro-azeto[2,1-a]isoindole-4-carboxylate] was tested. Which IC50 did it give?
The IC50 was 120 µM.
